Test results taken from patent EP2298282B1, “COMBINATION OF DRUGS HAVING DIFFERENT PHYSICAL PROPERTIES INTO SINGLE DOSAGE FORM” (Cocokara fine Healthcare Inc., priority 2008, dated 2009).

How the values were obtained:
Format in all cases: physicochemical
[1] = Dispersion in aqueous 0.4% Carbopol solution (electrode gel solution for iontophoresis)
Experimental: Carbopol (Carbopol 940, manufactured by B. F. Goodrich, 0.2 g) was dissolved in 0.3% citrate buffer (pH 6). The pH level of this solution was adjusted at 6 with sodium hydroxide to bring the total amount of the solution to 50 g, and a solution of 0.4% Carbopol (hereafter referred to as an "aqueous 0.4% Carbopol solution") was obtained. The CoQ10-surfactant composite (CoQ10-HydroS, 5 g) obtained in Production Example 14 was dispersed in 50 g of an aqueous 0.4% Carbopol solution with the use of an agitation blade, and a clear homogeneous solution was obtained (hereafter referred to as an "aqueous 0.4% Carbopol solution containing CoQ10-HydroS").
In this case, CoQ10 remained suspended in the solution. […] Thus, CoQ10, which is a low-solubility, nutritional factor, was prepared in the form of a CoQ10-surfactant composite (CoQ10-HydroS), and an aqueous solution for an electrode gel containing a nutritional factor for iontophoresis homogeneously dispersed/dissolved in water was obtained.

[2] = Long-term stability (2-year) at room temperature, browning; conditions: stored at room temperature for 2 years
Excerpt: Long-term stability (2-year) was inspected at room temerature using S/O VC·PMg obtained in Production Example 5. A non-S/O VC·PMg solution was used as a positive control, and a dispersion medium used for S/O preparation was used as a negative control.
The photograph shown in Fig. 6 was stored at room temperature for 2 years.

[3] = Dispersion in olive oil together with vitamin E (VE)
Excerpt: The VC·PMg-surfactant composite (VC·PMg-LipoS, 5g) obtained in Production Example 12 and 0.5 g of vitamin E (VE) were dispersed in 1 kg of olive oil with the use of an agitation blade, and a clear homogeneous solution was obtained. This homogeneous solution was subjected to plastic filling with the use of a rotary soft capsule filling machine in constant amounts of 0.4 g, and soft capsules containing VC·PMg and VE with high content uniformity were obtained. Soft capsules could be produced in a twist-off form as well as in a general oval form. Similarly, constant amounts of 0.1 g were subjected to plastic filling with the use of a seamless soft capsule filling machine to obtain soft capsules containing VC·PMg and VE with high content uniformity. […] In this case, VC·PMg remained suspended in the solution. […] The formed soft capsules were packaged in easy-peel blister packs composed of a plastic film and an aluminum film. Thus, products that allow soft capsules with a low degree of hardness to be easily removed and are clean and easy to carry were obtained. Soft capsules were also packaged in press-through blister packs.

SMILES: COC1=C(OC)C(=O)C(C/C=C(\C)CC/C=C(\C)CC/C=C(\C)CC/C=C(\C)CC/C=C(\C)CC/C=C(\C)CC/C=C(\C)CC/C=C(\C)CC/C=C(\C)CCC=C(C)C)=C(C)C1=O [CoQ10, ubiquinone]
- appearance of the dispersion ([1]; dispersed in 50 g of aqueous 0.4% Carbopol solution (pH 6)): a clear solution was not obtained
- appearance when allowed to stand ([1]; in 50 g of aqueous 0.4% Carbopol solution containing 4.5 g of SLS, allowed to stand): a precipitate was observed

SMILES: O=C1O[C@H]([C@@H](O)CO)C([O-])=C1OP(=O)([O-])[O-].O=C1O[C@H]([C@@H](O)CO)C([O-])=C1OP(=O)([O-])[O-].[Mg+2].[Mg+2].[Mg+2] [VC·PMg solution, magnesium ascorbyl phosphate]
- browning [2]: browned with the elapse of time

SMILES: O=C1O[C@H]([C@@H](O)CO)C([O-])=C1OP(=O)([O-])[O-].O=C1O[C@H]([C@@H](O)CO)C([O-])=C1OP(=O)([O-])[O-].[Mg+2].[Mg+2].[Mg+2] [VC·PMg, magnesium ascorbyl phosphate]
- appearance of the dispersion ([3]; dispersed with 0.5 g VE in 1 kg of olive oil): a clear solution was not obtained
- appearance when allowed to stand ([3]; with 0.5 g VE in 1 kg of olive oil containing 4.5 g ER-290, allowed to stand): a precipitate was observed
